Molecular target: T1, SHV-1 (Klebsiella pneumoniae, UniProt P0AD64)
T1 construct: made in house; host or cells: E. coli
Assay: β-Lactamase inhibitory activity, nitrocefin hydrolysis
Format: biochemical
Experimental: Enzyme activity was monitored by spectrophotometric measurement of nitrocefin (NCF-TOKU-E, N005) hydrolysis at 485 nm, at room temperature and in assay buffer A: 100 mM Phosphate pH7, 2% glycerol and 0.1 mg/mL Bovine serum albumin (Sigma, B4287). Enzymes were cloned in E. coli expression vector, expressed and purified in house using classical procedures. To a transparent polystyrene plate (Corning, 3628) were added in each well 5 μL DMSO or inhibitor dilutions in DMSO and 80 μL enzyme in buffer A. Plates were immediately read at 485 nm in a microplate spectrophotometer (BioTek, PowerWave HT) to enable background subtraction. After 30 min of pre-incubation at room temperature, 15 μL of NCF (200 μM final) were finally added in each well. Final enzyme concentrations were 0.1 nM (TEM-1), 0.075 nM (SHV-1), 0.4 nM (CTX-M-15), 1 nM (KPC-2), 0.2 nM (P99 AmpC), 0.2 nM (CMY-37), 0.4 nM (AmpC P. aeruginosa), 0.2 nM (OXA-1), 1.2 nM (OXA-11), 0.4 nM (OXA-15) and 0.3 nM (OXA-48). After 20 min incubation at room temperature, plates were once again read at 485 nm. Enzyme activity was obtained by subtracting the final signal by the background, and was converted to enzyme inhibition using non inhibited wells. IC50 curves were fitted to a classical Langmuir equilibrium model with Hill slope using XLFIT (IDBS).

T1 sequence (P0AD64 22-286): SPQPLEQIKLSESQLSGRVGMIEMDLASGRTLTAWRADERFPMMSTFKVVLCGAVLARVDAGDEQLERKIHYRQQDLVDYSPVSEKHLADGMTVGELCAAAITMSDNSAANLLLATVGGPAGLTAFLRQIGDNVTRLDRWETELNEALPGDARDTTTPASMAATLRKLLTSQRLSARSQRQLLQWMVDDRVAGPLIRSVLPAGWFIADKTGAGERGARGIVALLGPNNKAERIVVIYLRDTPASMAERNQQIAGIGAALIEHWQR

Structure (SMILES): O=C(O)C(F)(F)F.O=C1N2C[C@H](c3scnc3[C@H]2c2ncc[nH]2)N1OS(=O)(=O)[O-].[Na+] (relative stereo) [Example 1, Sodium and 2,2,2-trifluoroacetate [trans-7-(1H-imidazol-3-ium-2-yl)-9-oxo-3-thia-5,8,10-triaza-tricyclo[6.2.1.0^2,6]undeca-2(6),4-dien-10-yl]sulfate]
- IC50: 5.5 nM

From patent US10842779B2, “Heterocyclic compounds and their use in preventing or treating bacterial infections” (priority 2015, dated 2020)
